Reference: patent US10532977B2, “Small molecule inhibitors of protein tyrosine phosphatases and uses thereof” (Indiana University Research and Technology Corporation, priority 2015, dated 2020)

System: mPTPB
Assay: IFN-γ induced Erk1/2 phosphorylation in mPTPB transfected Raw264.7 cells
Type: cell-based, mouse
Description: Raw264.7 mouse macrophages were cultured in Dulbecco's modified Eagle's medium (DMEM) supplemented with 10% FBS (Invitrogen), penicillin (50 units/mL), and streptomycin (50 μg/mL) under a humidified atmosphere containing 5% CO2 at 37° C. Transfected Raw264.7 cells (Vector, WT-mPTPB) were seeded in a 12-well plate at a density of 4×10^4 cells/well. The following day cells were treated with mPTPB inhibitor 11a for 1 hour, then stimulated with IFN-γ (200 U/ml) for 1 hour. Subsequently, the cells were washed with ice-cold phosphate buffered saline, and lysed with lysis buffer on ice for 30 minutes. Cell lysate was then cleared by centrifuging at 13,000 rpm for 15 minutes. The phosphorylation of ERK1/2 was detected by Western blotting.

O=C(C(c1ccccc1)S(=O)(=O)O)N1CCCC2CCCCC21 (centres unmarked) [Compound L319N53]
Erk1/2 phosphorylation in mPTPB transfected Raw264.7 cells (8 nM, 16 nM, and 32 nM): increased Erk1/2 phosphorylation | Erk1/2 phosphorylation in vector cells (Raw264.7 vector cells): no effect
